According to patent US20260102407A1, “TREATMENT METHODS” (priority 2020, published 2026):

Assays:
[1] = tested on: c-Fos; experiment: Western blot, serum-inducible c-Fos expression in HMEC-1; format: cell-based, human; settings: 30 μM compound, 10% FBS 1 h
Experimental: Western blot analysis with extracts of cells treated with serum. HMEC-1 (80-90% confluency) were arrested in serum-free MCDB131 medium without EGF or hydrocortisone for 20 h. Cells were treated with 30 μM compound in serum-free MCDB131 medium for 4 h, and the medium was changed to complete medium (with 10% FBS with EGF and hydrocortisone) with 30 μM compound for 1 h. Total protein was harvested as previously described in radioimmunoprecipitation (RIPA) lysis buffer with protease inhibitors (Li, Y., et al., Int J Cardiol 220, 185-191 (2016)). Proteins were resolved on 4-20% (w/v) sodium dodecyl sulfate (SDS)-polyacrylamide gradient gels (Bio-Rad Mini-PROTEAN TGX) and transferred to Immobilon-P PVDF membranes (Millipore, USA). Membranes were blocked with 5% skim milk and incubated with rabbit monoclonal FosB (cat. 2251, 1:1000, Cell Signaling, USA), rabbit monoclonal c-Fos antibodies (cat. 2250, 1:1000, Cell Signaling, USA) at 4° C. overnight or mouse monoclonal […] antibodies (cat. A5316, 1:30000, Sigma-Aldrich) at 22° C. for 15 min then incubated with a horseradish peroxidase conjugated secondary goat anti-rabbit (cat. P0448, 1:1000, DAKO Cytomation, Denmark) or goat anti-mouse (cat. P0447, 1:1000, DAKO Cytomation, Denmark) antibodies for 1 h. Chemiluminescence was detected using the Western Lightning Chemiluminescence system (PerkinElmer, USA) and ImageQuant™ LAS 4000 biomolecular imager (GE Healthcare Life Sciences, USA). Band intensity in images generated with the LAS 4000 on automatic exposure with sensitivity/resolution setting high was quantified using NIH ImageJ.

[2] = tested on: FosB; experiment: Matrigel plug assay, FosB staining; format: in vivo; settings: C57BL/6 mice; 2.5 mg/mouse; 7 days
Experimental: (§1) Matrigel plug assay. Matrigel (500 μl) containing VEGF-A165 (100 ng/ml), heparin (10U) and BT2 or BT3 (2.5 mg/mouse) or its vehicle (saline containing 0.01% DMSO and 0.5% Tween 80) was injected subcutaneously into the left flanks of male 8 week-old C57BL/6 mice. After 7d the mice were sacrificed by CO2 asphyxiation and the plugs carefully removed. Formalin-fixed paraffin embedded sections were prepared from Matrigel plugs for immunohistological assessment. Heat-induced epitope retrieval was applied to all deparaffinized sections (4 μm Superfrost slides) in citrate buffer, pH 6 for 5 min at 110° C. Immunostaining for all groups with a given antibody was performed simultaneously and development time was identical. […]
(§2) Slides were scanned using an Aperio ScanScope XT slide scanner (Leica Biosystems, Mt Waverley, Vic Australia) and images captured using ImageScope software (Leica Biosystems). Positive intraplug staining was assessed using Image-Pro Plus software (Cybernetics, Bethesda, MD) in 5-12 randomly selected fields of view for each plug photographed under 10× (CD31), 20× (VCAM-1) and 40× (FosB) objectives and expressed as integrated optical density (IOD, the product of calibrated intensity (optical density) and area, i.e. IOD=intensity (mean)×area) (Media Cybernetics) (Liu, H., et al., Sci Rep 6, 21319 (2016)). […]

[3] = tested on: VCAM-1; experiment: Matrigel plug assay, VCAM-1 staining; format: in vivo; settings: C57BL/6 mice; 2.5 mg/mouse; 7 days
Experimental: as §1, §2

[4] = tested on: VCAM-1; experiment: Flow cytometry of VCAM-1 on IL-1β-treated HMEC-1; format: cell-based, human; settings: 30 μM, 20 ng/ml IL-1β 4 h
Experimental: Flow cytometry. HMEC-1 (at 80-90% confluency) were arrested in serum-free MCDB131 medium without EGF or hydrocortisone for 40 h, treated with 30 μM BT2 or BT3 for 4 h. The cells were incubated in serum-free medium and exposed to 20 ng/ml IL-1β with the same concentration of BT2 or BT3 for a further 4 h. The cells were washed with PBS then detached with Accutase (Stem Cell Technologies, cat. 07920). The cells were centrifuged at 300 g for 5 min and resuspended at 5×10^6 cells/ml containing BT2 or BT3. The cells were incubated with BV421-conjugated mouse anti-human CD106 (VCAM-1) (BD, cat. 744309) or BV421-conjugated mouse IgG1 (BD, cat. 562438) for 45 min at 22° C. The cells were washed with Stain Buffer and the pellet was resuspended in 0.5 ml of 1% paraformaldehyde prior to flow cytometry BD FACSCanto II.
VCAM-1^+ and VCAM-1^− cells were gated by performing flow cytometry with or without primary VCAM-1 antibody (non-specific staining), respectively. […] The gating strategy is based on fluorescence excitation off both the 488 nm laser and 405 nm laser with emission filters 670LP off 488 nm and 450/50 off 405 nm. Cells with autofluorescence or negative (blue population) had equal proportion of fluorescence in both channels and VCAM-1 positive cells (red) emit light in the 450/50 filter.

CCOC(=O)Nc1ccc2c(c1)C(=O)N(CC)c1ccccc1O2 [BT2, (10-ethyl-11-oxo-10,11-dihydro-dibenzo[b,f][1,4]oxazepin-2-yl)-carbamic acid ethyl ester]
serum-inducible c-Fos expression (Western blot) [1]: blocked the inducible expression of c-Fos
FosB immunoreactivity in Matrigel plugs [2]: inhibited
VCAM-1 immunoreactivity in Matrigel plugs [3]: inhibited
VCAM-1 expression by flow cytometry [4]: inhibition of VCAM-1
